Assay results taken from PMC3914206.

How the values were obtained:
Test in all cases: KiNativ chemical proteomics profiling in HeLa and PC3 cell lysates
Format in all cases: binding
[1] = target: T1, selected panels of kinases in HeLa and PC3 cell lysates (Homo sapiens, UniProt P23443); conditions: 10 uM, peptide DLk[…], labeling site Lys2; for % Inhibition p70S6K: proteome PC3; for % Inhibiton, p70S6K: proteome HEL
T1 construct: endogenous in cells; host or cells: HeLa and PC3 cell lysates

[2] = target: T2, selected panels of kinases in HeLa and PC3 cell lysates (Homo sapiens, UniProt Q96BR1); conditions: 10 uM; SGK3; peptide FYAVkVLQK; proteome HEL; labeling site Lys1
T2 construct: endogenous in cells; host or cells: HeLa and PC3 cell lysates

[3] = target: T3, selected panels of kinases in HeLa and PC3 cell lysates (Homo sapiens, UniProt P49840); conditions: 10 uM; proteome HEL; peptide DIk[…]; labeling site Lys2
T3 construct: endogenous in cells; host or cells: HeLa and PC3 cell lysates
T3 sequence (P49840 whole entry): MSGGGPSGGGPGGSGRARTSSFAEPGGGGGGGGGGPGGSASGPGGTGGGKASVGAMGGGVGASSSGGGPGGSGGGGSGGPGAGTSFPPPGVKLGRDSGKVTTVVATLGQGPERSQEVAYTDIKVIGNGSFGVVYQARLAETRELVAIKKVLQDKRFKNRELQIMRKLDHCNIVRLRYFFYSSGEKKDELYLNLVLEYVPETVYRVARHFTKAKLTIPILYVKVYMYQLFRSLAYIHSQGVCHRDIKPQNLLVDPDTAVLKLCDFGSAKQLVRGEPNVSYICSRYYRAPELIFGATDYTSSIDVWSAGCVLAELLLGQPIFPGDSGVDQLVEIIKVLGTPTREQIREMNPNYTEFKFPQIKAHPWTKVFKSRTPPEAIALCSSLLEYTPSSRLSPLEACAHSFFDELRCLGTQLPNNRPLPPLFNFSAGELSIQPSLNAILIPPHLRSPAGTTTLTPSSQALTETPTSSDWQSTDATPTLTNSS

[4] = target: T4, selected panels of kinases in HeLa and PC3 cell lysates (Homo sapiens, UniProt Q96PY6); conditions: 10 uM; proteome HEL; peptide DIkSQNIFLTK; labeling site Lys2
T4 construct: endogenous in cells; host or cells: HeLa and PC3 cell lysates

[5] = target: T5, selected panels of kinases in HeLa and PC3 cell lysates (Homo sapiens, UniProt P50750); conditions: 10 uM; proteome PC3; peptide DMkAANVLITR; labeling site Lys2
T5 construct: endogenous in cells; host or cells: HeLa and PC3 cell lysates

[6] = target: T6, selected panels of kinases in HeLa and PC3 cell lysates (Homo sapiens, UniProt P10398); conditions: 10 uM; proteome HEL; peptide DLk[…]; labeling site Lys2
T6 construct: endogenous in cells; host or cells: HeLa and PC3 cell lysates

[7] = target: T7, selected panels of kinases in HeLa and PC3 cell lysates (Homo sapiens, UniProt Q7RTN6); conditions: 10 uM; STLK5; peptide YSVk[…]; proteome HEL; labeling site Activation Loop
T7 construct: endogenous in cells; host or cells: HeLa and PC3 cell lysates

[8] = target: T8, selected panels of kinases in HeLa and PC3 cell lysates (Homo sapiens, UniProt P23458); conditions: 10 uM, proteome HEL; for % Inhibiton, JAK1 domain1: peptide […]kNLLLAR, labeling site Other
T8 construct: endogenous in cells; host or cells: HeLa and PC3 cell lysates
T8 sequence (P23458 whole entry, the tested form may be a part): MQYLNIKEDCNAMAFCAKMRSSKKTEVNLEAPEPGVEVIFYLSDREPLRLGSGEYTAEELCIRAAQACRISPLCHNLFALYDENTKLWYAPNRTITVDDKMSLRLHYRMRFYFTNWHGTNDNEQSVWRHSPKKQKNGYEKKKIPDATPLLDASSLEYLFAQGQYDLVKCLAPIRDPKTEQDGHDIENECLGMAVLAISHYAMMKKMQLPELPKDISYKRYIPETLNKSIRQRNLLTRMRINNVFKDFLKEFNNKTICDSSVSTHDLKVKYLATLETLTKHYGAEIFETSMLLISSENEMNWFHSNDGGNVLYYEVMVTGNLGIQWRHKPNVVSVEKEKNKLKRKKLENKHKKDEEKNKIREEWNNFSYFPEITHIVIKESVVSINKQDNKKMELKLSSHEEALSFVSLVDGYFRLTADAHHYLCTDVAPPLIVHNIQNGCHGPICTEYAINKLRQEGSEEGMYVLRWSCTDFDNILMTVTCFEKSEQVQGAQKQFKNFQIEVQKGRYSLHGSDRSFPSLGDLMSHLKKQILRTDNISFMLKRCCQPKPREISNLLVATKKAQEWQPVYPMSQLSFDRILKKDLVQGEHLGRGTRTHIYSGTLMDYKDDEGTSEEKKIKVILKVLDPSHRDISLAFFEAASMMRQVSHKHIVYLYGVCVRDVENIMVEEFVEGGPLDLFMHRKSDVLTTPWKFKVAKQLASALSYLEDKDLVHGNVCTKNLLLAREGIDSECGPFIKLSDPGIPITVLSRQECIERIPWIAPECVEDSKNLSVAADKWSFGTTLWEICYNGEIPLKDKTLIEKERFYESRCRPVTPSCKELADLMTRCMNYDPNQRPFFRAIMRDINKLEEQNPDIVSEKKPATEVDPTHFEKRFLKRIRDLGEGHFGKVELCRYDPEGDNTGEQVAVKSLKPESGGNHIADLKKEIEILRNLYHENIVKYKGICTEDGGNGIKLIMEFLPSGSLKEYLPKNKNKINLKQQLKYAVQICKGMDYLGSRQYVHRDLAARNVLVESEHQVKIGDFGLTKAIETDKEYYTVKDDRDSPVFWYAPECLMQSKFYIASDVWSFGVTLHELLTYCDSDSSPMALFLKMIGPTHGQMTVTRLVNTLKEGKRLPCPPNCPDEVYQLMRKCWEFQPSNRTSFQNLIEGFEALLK

[9] = target: T9, selected panels of kinases in HeLa and PC3 cell lysates (Homo sapiens, UniProt Q7KZI7); conditions: 10 uM; proteome PC3; peptide EVAVk[…]; labeling site Lys1
T9 construct: endogenous in cells; host or cells: HeLa and PC3 cell lysates

[10] = target: T10, selected panels of kinases in HeLa and PC3 cell lysates (Homo sapiens, UniProt Q9NYL2); conditions: 10 uM, ZAK, peptide […]k, labeling site Lys1
T10 construct: endogenous in cells; host or cells: HeLa and PC3 cell lysates
T10 sequence (Q9NYL2 whole entry): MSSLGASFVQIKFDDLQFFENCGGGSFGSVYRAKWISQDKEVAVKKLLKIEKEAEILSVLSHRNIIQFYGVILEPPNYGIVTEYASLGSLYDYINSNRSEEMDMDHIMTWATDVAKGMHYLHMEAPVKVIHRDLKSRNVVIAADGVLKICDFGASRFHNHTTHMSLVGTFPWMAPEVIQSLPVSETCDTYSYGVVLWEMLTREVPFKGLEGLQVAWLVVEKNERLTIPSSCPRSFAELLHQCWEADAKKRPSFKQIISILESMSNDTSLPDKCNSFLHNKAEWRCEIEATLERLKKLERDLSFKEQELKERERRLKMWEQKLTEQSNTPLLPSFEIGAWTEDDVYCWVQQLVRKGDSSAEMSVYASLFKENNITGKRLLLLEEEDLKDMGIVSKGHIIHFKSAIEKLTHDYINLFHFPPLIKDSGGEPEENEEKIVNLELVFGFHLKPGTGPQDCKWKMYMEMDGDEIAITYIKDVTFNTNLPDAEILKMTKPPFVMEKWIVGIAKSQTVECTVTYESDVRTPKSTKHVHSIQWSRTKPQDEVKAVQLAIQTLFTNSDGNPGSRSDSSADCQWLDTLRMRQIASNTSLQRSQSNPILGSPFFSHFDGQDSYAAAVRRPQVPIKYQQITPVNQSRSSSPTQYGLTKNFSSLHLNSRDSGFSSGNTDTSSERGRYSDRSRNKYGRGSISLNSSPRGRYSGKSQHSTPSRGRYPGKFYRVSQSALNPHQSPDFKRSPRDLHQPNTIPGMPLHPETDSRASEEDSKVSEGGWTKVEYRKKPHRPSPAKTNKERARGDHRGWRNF

[11] = target: T11, selected panels of kinases in HeLa and PC3 cell lysates (Homo sapiens, UniProt Q9UL54); conditions: 10 uM; TAO2; peptide DVk[…]; proteome PC3; labeling site Lys2
T11 construct: endogenous in cells; host or cells: HeLa and PC3 cell lysates

[12] = target: T12, selected panels of kinases in HeLa and PC3 cell lysates (Homo sapiens, UniProt P29323); conditions: 10 uM; proteome PC3; peptide […]kIPIR; labeling site Activation Loop
T12 construct: endogenous in cells; host or cells: HeLa and PC3 cell lysates

[13] = target: T13, selected panels of kinases in HeLa and PC3 cell lysates (Homo sapiens, UniProt Q96S44); conditions: 10 uM, PRPK, peptide FLSGLELVkQGAEAR, labeling site ATP Loop
T13 construct: endogenous in cells; host or cells: HeLa and PC3 cell lysates
T13 sequence (Q96S44 1-253): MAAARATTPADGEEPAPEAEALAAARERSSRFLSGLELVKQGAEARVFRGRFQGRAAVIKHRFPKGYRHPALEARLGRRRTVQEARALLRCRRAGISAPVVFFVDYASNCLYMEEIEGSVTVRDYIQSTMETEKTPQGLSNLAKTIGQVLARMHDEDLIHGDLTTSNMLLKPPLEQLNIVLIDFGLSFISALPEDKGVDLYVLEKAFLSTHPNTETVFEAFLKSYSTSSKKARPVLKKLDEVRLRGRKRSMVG

[14] = target: T14, selected panels of kinases in HeLa and PC3 cell lysates (Homo sapiens, UniProt P27361); conditions: 10 uM, peptide DLk[…], labeling site Lys2
T14 construct: endogenous in cells; host or cells: HeLa and PC3 cell lysates
T14 sequence (P27361 whole entry): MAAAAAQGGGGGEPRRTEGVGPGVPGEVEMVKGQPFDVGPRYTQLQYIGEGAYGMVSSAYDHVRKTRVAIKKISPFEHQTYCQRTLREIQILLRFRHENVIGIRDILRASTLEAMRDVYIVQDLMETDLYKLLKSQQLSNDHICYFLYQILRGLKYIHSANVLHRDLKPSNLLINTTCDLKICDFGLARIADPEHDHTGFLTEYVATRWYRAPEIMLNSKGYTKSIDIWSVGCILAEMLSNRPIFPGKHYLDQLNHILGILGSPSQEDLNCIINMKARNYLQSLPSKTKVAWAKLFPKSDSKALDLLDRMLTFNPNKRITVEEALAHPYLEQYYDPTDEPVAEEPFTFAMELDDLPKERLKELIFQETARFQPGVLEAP

[15] = target: T15, selected panels of kinases in HeLa and PC3 cell lysates (Homo sapiens, UniProt P48729); conditions: 10 uM; proteome PC3; peptide DIk[…]; labeling site Lys2
T15 construct: endogenous in cells; host or cells: HeLa and PC3 cell lysates

[16] = target: T16, selected panels of kinases in HeLa and PC3 cell lysates (Homo sapiens, UniProt Q9Y5S2); conditions: 10 uM, proteome PC3
T16 construct: endogenous in cells; host or cells: HeLa and PC3 cell lysates
T16 sequence (Q9Y5S2 whole entry): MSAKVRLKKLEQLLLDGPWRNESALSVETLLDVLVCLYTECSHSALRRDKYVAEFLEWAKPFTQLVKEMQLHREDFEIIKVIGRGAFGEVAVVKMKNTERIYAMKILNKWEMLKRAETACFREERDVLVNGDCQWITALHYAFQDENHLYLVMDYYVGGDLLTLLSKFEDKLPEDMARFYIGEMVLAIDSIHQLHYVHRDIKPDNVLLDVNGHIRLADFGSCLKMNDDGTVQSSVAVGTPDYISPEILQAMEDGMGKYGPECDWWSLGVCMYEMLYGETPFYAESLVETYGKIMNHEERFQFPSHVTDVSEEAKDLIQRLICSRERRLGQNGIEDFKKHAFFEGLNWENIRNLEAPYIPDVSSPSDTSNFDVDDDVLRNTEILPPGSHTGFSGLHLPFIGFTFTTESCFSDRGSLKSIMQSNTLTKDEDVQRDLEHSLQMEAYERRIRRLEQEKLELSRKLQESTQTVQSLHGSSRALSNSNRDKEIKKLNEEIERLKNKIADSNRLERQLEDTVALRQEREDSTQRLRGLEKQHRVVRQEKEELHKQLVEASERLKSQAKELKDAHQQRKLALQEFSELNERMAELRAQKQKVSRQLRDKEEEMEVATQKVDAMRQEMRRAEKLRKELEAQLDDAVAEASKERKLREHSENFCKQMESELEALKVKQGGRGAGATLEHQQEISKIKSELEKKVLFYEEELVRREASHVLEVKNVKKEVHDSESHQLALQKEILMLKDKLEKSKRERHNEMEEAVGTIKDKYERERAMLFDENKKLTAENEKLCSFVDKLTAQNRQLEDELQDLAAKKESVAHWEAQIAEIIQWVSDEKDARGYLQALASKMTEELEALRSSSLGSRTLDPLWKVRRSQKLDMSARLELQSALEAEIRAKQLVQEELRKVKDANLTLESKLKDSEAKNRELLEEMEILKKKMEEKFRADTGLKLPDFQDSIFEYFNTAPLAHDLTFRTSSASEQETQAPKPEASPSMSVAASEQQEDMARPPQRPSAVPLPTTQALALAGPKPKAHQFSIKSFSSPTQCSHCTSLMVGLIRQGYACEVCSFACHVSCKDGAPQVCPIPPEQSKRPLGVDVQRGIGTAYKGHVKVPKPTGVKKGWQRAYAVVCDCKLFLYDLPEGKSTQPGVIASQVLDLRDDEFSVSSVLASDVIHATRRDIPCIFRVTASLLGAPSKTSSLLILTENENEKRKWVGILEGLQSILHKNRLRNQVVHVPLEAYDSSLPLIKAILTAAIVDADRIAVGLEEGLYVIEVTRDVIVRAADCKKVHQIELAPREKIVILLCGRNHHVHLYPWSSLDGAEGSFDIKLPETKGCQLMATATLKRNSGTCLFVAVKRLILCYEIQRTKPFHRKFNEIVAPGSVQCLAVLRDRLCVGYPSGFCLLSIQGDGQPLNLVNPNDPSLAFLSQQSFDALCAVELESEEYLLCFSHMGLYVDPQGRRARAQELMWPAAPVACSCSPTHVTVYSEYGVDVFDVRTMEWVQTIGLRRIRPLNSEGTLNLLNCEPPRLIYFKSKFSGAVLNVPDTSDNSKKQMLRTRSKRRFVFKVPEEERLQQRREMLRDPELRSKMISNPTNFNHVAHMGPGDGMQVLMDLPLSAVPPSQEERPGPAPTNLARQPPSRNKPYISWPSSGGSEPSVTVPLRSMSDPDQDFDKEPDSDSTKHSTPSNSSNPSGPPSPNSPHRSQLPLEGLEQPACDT

[17] = target: T17, selected panels of kinases in HeLa and PC3 cell lysates (Homo sapiens, UniProt Q96S38); conditions: 10 uM; RSKL1 domain1; peptide VLGVIDkVLLVMDTR; proteome HEL; labeling site Protein Kinase Domain
T17 construct: endogenous in cells; host or cells: HeLa and PC3 cell lysates

[18] = target: T18, selected panels of kinases in HeLa and PC3 cell lysates (Homo sapiens, UniProt Q14164); conditions: 10 uM; proteome HEL; peptide SGELVAVk[…]; labeling site Lys1
T18 construct: endogenous in cells; host or cells: HeLa and PC3 cell lysates

[19] = target: T19, selected panels of kinases in HeLa and PC3 cell lysates (Homo sapiens, UniProt Q9UHD2); conditions: 10 uM; TBK1; peptide TGDLFAIk[…]; proteome HEL; labeling site Lys1
T19 construct: endogenous in cells; host or cells: HeLa and PC3 cell lysates

[20] = target: T20, selected panels of kinases in HeLa and PC3 cell lysates (Homo sapiens, UniProt O94921); conditions: 10 uM; PFTAIRE1; peptide LVALkVIR; proteome PC3; labeling site Lys1
T20 construct: endogenous in cells; host or cells: HeLa and PC3 cell lysates

[21] = target: T21, selected panels of kinases in HeLa and PC3 cell lysates (Homo sapiens, UniProt P50613); conditions: 10 uM; proteome HEL; peptide DLk[…]; labeling site Lys2
T21 construct: endogenous in cells; host or cells: HeLa and PC3 cell lysates

[22] = target: T22, selected panels of kinases in HeLa and PC3 cell lysates (Homo sapiens, UniProt Q9NRM7); conditions: 10 uM; proteome HEL; peptide VDTHALYAMkTLR; labeling site Lys1
T22 construct: endogenous in cells; host or cells: HeLa and PC3 cell lysates

[23] = target: T23, selected panels of kinases in HeLa and PC3 cell lysates (Homo sapiens, UniProt Q99683); conditions: 10 uM; proteome HEL; peptide DIk[…]; labeling site Lys2
T23 construct: endogenous in cells; host or cells: HeLa and PC3 cell lysates

[24] = target: T24, selected panels of kinases in HeLa and PC3 cell lysates (Homo sapiens, UniProt Q15418); conditions: 10 uM; RSK1 domain1; peptide LTDFGLSkEAIDHEK; proteome HEL; labeling site Activation Loop
T24 construct: endogenous in cells; host or cells: HeLa and PC3 cell lysates

[25] = peptide IGDFGLTk[…], labeling site Activation Loop
[26] = peptide […]k[…], labeling site Lys1
[27] = peptide DIk[…], labeling site Lys2
[28] = peptide […]kLPETK, labeling site Other

T1 sequence (P23443 whole entry): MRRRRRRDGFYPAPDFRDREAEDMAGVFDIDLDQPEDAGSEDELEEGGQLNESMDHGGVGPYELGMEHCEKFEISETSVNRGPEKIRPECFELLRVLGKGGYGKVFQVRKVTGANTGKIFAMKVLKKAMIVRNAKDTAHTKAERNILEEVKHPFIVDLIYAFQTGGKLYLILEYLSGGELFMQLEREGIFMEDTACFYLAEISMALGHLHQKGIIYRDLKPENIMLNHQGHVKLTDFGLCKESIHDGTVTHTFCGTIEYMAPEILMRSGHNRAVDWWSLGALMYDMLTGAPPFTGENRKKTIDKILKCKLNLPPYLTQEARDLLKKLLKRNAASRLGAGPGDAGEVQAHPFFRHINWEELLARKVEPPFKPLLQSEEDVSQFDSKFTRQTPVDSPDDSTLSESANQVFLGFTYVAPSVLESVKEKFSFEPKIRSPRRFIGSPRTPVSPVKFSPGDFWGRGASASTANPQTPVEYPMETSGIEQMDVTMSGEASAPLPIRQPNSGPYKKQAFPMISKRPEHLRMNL

| Compound | % Inhibition p70S6K [1] [%] | % Inhibiton, p70S6K [1] [%] | % Inhibition SGK3 [2] [%] | % Inhibiton, GSK3A [3] [%] | % Inhibiton, NEK1 [4] [%] | % Inhibiton, CDK9 [5] [%] | % Inhibiton, ARAF [6] [%] | % Inhibition STLK5 [7] [%] | % Inhibiton, JAK1 domain2 [8, 25] [%] | % Inhibiton, JAK1 domain1 [8] [%] | % Inhibiton, JAK1 domain2 [8, 26] [%] | % Inhibiton, MARK2 [9] [%] | % Inhibition ZAK ([10]; proteome HEL) [%] | % Inhibition ZAK ([10]; proteome PC3) [%] | % Inhibition TAO2 [11] [%] | % Inhibiton, EphB2 [12] [%] | % Inhibition PRPK ([13]; proteome HEL) [%] | % Inhibition PRPK ([13]; proteome PC3) [%] | % Inhibiton, Erk1 ([14]; proteome HEL) [%] | % Inhibiton, Erk1 ([14]; proteome PC3) [%] | further results |
| --- | --- | --- | --- | --- | --- | --- | --- | --- | --- | --- | --- | --- | --- | --- | --- | --- | --- | --- | --- | --- | --- |
| COc1cc(C(=O)N2CCC(N3CCN(C)CC3)CC2)ccc1Nc1ncc2c(n1)N(C1CCCC1)c1ccccc1C(=O)N2C [Compound 25, 11-cyclopentyl-2-((2-methoxy-4-(4-(4-methylpiperazin-1-yl)piperidine-1-carbonyl)phenyl)amino)-5-methyl-5H-benzo[e]pyrimido[5,4-b][1,4]diazepin-6(11H)-one] | 3.9 | 16.9 | 8.2 | 4.1 | 14.7 | 10.0 | -0.657 | -32.9 | 5.1 | 3.2 | 4.8 | 1.3 | -6.6 | -9.3 | 0.261 | -3.8 | -8.1 | -11.3 | 20.3 | 8.4 | % Inhibiton, CK1a [15]: 9.4%; % Inhibiton, MRCKb [16, 27]: -5.1%; % Inhibiton, MRCKb [16, 28]: 6.2%; % Inhibition RSKL1 domain1 [17]: ~75.1%; % Inhibiton, IKKe [18]: -20.7%; % Inhibition TBK1 [19]: -96.8%; % Inhibition PFTAIRE1 [20]: -9.7%; % Inhibiton, CDK7 [21]: 67.9%; % Inhibiton, LATS2 [22]: -4.2%; % Inhibiton, MAP3K5 [23]: 17.3%; % Inhibition RSK1 domain1 [24]: 0.161% |
| CCOc1cc(C(=O)N2CCC(N3CCN(C)CC3)CC2)ccc1Nc1ncc2c(n1)N(C1CCCC1)c1ccccc1C(=O)N2C [Compound 26] | 10 | -24.4 | 25.5 | 10.2 | 3 | 0.7 | 2.9 | ~72.8 | 6.3 | 24.2 | 32.1 | 16.8 | 13.4 | -25.5 | 7.2 | -3.1 | 9.6 | -5.6 | -1.3 | -0.2 | % Inhibiton, CK1a [15]: -0.3%; % Inhibiton, MRCKb [16, 27]: 1.8%; % Inhibiton, MRCKb [16, 28]: 9.2%; % Inhibition RSKL1 domain1 [17]: -6.2%; % Inhibiton, IKKe [18]: 8.6%; % Inhibition TBK1 [19]: ~57.6%; % Inhibition PFTAIRE1 [20]: -14.3%; % Inhibiton, CDK7 [21]: 22.2%; % Inhibiton, LATS2 [22]: 3.2%; % Inhibiton, MAP3K5 [23]: -8.4%; % Inhibition RSK1 domain1 [24]: 5.6% |
